Calls of active or inactive are those of the source.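 Rule for the calls: active = fitted curve drops past -35% activity change at a concentration up to twice the top valid tested dose; inactive = the rest, including activity in the opposite direction.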
Tested on: HepG2 viability, ATP luminescence (CellTiter-Glo), 72 h
Assay: viability loss in HepG2 hepatoma cells – cell-based, luminescence, dry powder, set 12, cytotoxicity control, dose response (AID 743471)
Conditions: not given

Structure (SMILES)	AC35 [µM]
CC1(C)CC(c2nc(-c3ccc4ccc(-c5ccccc5)nc4c3)c3c(N)nccn23)C1	7.54
CC(C)N1c2ccccc2C(c2ccc(F)cc2)C1/C=C/C(O)CC(O)CC(=O)O (stereo not drawn)	22.3
CC[C@@]1(O)C(=O)OCc2c1cc1n(c2=O)Cc2cc3c(CN(C)C)c(O)ccc3nc2-1	2.2
COc1ccc(-c2cc(NC=O)c3ncc(-c4ccc(OC)c(OC)c4)n3c2)cc1	3.25
Cc1cc(Nc2cc(N3CCN(C)CC3)nc(Sc3ccc(NC(=O)C4CC4)cc3)n2)n[nH]1	8.49
Cn1cc(-c2ccncc2)c(-c2ccc(OCc3ccc4ccccc4n3)cc2)n1	12.9
Nc1ccn([C@@H]2O[C@H](CO)[C@H](O)C2O)c(=O)n1 (stereo partly drawn)	3.04
CCOC(=O)CCNc1cc(N2CCc3ccccc3CC2)nc(-c2ccccn2)n1	16.5
COc1ccc(C(=O)CC2(O)C(=O)Nc3c(Cl)ccc(Cl)c32)cc1 (stereo not drawn)	8.13
COc1ccc(-c2ccc3c(c2)[C@H]2[C@H](CCN2S(=O)(=O)c2ccc(OC)cc2)[C@@H](CO)N3)cc1	21.2
COc1ccc(-c2ccc3c(c2)[C@H]2[C@H](CCN2S(=O)(=O)c2ccc(OC)cc2)[C@@H](CO)N3C)cc1	21.4
N#CC1=C(N)Oc2cc(N)ccc2C1c1ccccc1 (stereo not drawn)	15
N#CC1=C(N)Oc2ccc3ccccc3c2C1c1cccc(F)c1 (stereo not drawn)	16.4
CN1CCN(CCOc2cc(OC3CCOCC3)c3c(Nc4c(Cl)ccc5c4OCO5)ncnc3c2)CC1	25.4
COc1ccc(S(=O)(=O)N2CC[C@@H]3[C@@H](CO)Nc4ccc(-c5ccc(C#N)cc5)cc4[C@@H]32)cc1	12.2
Clc1ccc(-c2cnc3ccc(-c4ccccc4)cn23)cc1	3.58
COc1ccc(C2=Nn3c(nnc3-c3ccccc3Cl)SC2)cc1OC	15.5
Cc1nc(Nc2ncc(C(=O)Nc3c(C)cccc3Cl)s2)cc(N2CCN(CCO)CC2)n1	12.5
COc1ccc(C2=Nn3c(nnc3-c3ccccc3)SC2)cc1OC	20.2
COc1ccc(C2=Nn3c(nnc3-c3ccccc3OC)SC2)cc1OC	0.53
COc1ccc(-c2cc(NC(C)=O)c3ncc(-c4ccc(OC)c(OC)c4)n3c2)cc1	17.9
COc1cccc2c1C(=O)c1c(O)c3c(c(O)c1C2=O)C[C@@](O)(C(=O)CO)C[C@@H]3O[C@H]1C[C@H](N)[C@H](O)[C@H](C)O1	0.0577
COc1ccc(C2=Nn3c(nnc3-c3ccccc3F)SC2)cc1OC	20.8
N#CC1=C(N)Oc2cc(O)ccc2C1c1cccc(Br)c1 (stereo not drawn)	13.7
COc1ccccc1-c1nnc2n1N=C(c1ccc(O)c(O)c1)CS2	19.2
CCC(C)C(=O)OC1CC(C)C=C2C=CC(C)C(CCC(O)CC(O)CC(=O)O)C21 (stereo not drawn)	88
N#Cc1ccc(-c2ccc3c(c2)[C@H]2[C@H](CCN2S(=O)(=O)c2cccc(F)c2)[C@@H](CO)N3)cc1	24.5
CC(C)(O)CCc1ccc(O)c2c(=O)c3c(O)c4c(cc3oc12)O[C@H]1OC=C[C@@]41O	0.065
CCc1c2c(nc3ccc(O)cc13)-c1cc3c(c(=O)n1C2)COC(=O)C3(O)CC (stereo not drawn)	0.241
COc1ccc(S(=O)(=O)N2CC[C@@H]3[C@@H](CO)Nc4ccc(-c5cccc(C#N)c5)cc4[C@@H]32)cc1	14.9

Tested on: not listed separately
Assay: as above
Conditions: HepG2 viability, ATP luminescence (CellTiter-Glo), 72 h; at 0.8 µM (top of the series)

Structure (SMILES)	activity change, negative = cytotoxicity
CCN(CCO)CCCOc1ccc2c(Nc3cc(CC(=O)Nc4cccc(F)c4)[nH]n3)ncnc2c1	6.31% (inactive)
CC[C@]1(O)CC2CN(CCc3c([nH]c4ccccc34)[C@@](C(=O)OC)(c3cc4c(cc3OC)N(C=O)[C@H]3[C@@](O)(C(=O)OC)[C@H](OC(C)=O)[C@]5(CC)C=CCN6CC[C@]43[C@@H]65)C2)C1 (stereo partly drawn)	-12.1% (inactive)

Same assay, conditions: HepG2 viability, ATP luminescence (CellTiter-Glo), 72 h; at 1.35 µM (top of the series)

Structure (SMILES)	activity change, negative = cytotoxicity
COc1cc([C@@H]2c3cc4c(cc3[C@@H](O[C@@H]3O[C@@H]5CO[C@@H](C)O[C@H]5[C@H](O)[C@H]3O)[C@H]3COC(=O)[C@H]23)OCO4)cc(OC)c1O	-5.5% (inactive)

Same assay, conditions: HepG2 viability, ATP luminescence (CellTiter-Glo), 72 h; at 8 µM (top of the series)

Structure (SMILES)	activity change, negative = cytotoxicity
N#CC1=C(N)Oc2cc3c(cc2C1c1cccc(Br)c1)OCO3 (stereo not drawn)	-4.83% (inactive)
COc1cccc(S(=O)(=O)N2CC[C@@H]3[C@@H](CO)Nc4ccc(-c5ccc(C#N)cc5)cc4[C@@H]32)c1	25.7% (inactive)

Same assay, conditions: HepG2 viability, ATP luminescence (CellTiter-Glo), 72 h; at 12 µM (top of the series)

Structure (SMILES)	activity change, negative = cytotoxicity
COc1ccc(NC(=O)Nc2ccc3c(c2)C(=O)N([C@@H](C)CO)C[C@H](C)[C@H](CN(C)Cc2ccc4c(c2)OCO4)O3)cc1	-13.2% (inactive)
COc1ccc(OC)c(-c2nnc3n2N=C(c2ccc(OC)c(OC)c2)CS3)c1	-16.5% (inactive)
O=C(Cc1ccc(-c2ccc(OCCN3CCOCC3)cc2)cn1)NCc1ccccc1	-10.2% (inactive)
C[C@@]1(C(=O)Nc2ccc(F)nc2)CCCN1c1nc(Nc2cc(C3CC3)[nH]n2)c2cccn2n1	-31.6% (inactive)

Same assay, conditions: HepG2 viability, ATP luminescence (CellTiter-Glo), 72 h; at 26 µM (top of the series)

Structure (SMILES)	activity change, negative = cytotoxicity
COc1ccc(S(=O)(=O)N(C(C)=O)c2ccc(OC(C)=O)c3ccccc23)cc1[N+](=O)[O-]	-15.5% (inactive)
N#CC1=C(N)Oc2cc(OC(=O)c3ccccc3)ccc2C1c1cccc(Br)c1 (stereo not drawn)	-8.31% (inactive)
N#CC1=C(N)Oc2cc(N)ccc2C12C(=O)Nc1ccc(Br)cc12 (stereo not drawn)	-10.7% (inactive)
Cc1ccc([N+](=O)[O-])cc1S(=O)(=O)N(C)C	-2.85% (inactive)
CCC(C)(C)C(=O)O[C@H]1C[C@@H](C)C=C2C=C[C@H](C)[C@H](CC[C@@H]3C[C@@H](O)CC(=O)O3)[C@H]21	1.04% (inactive)
COc1ccc(OC)c(-c2nnc3n2N=C(c2ccc(OC)c(OC)c2)CS3)c1	-21.2% (inactive)
COc1cc(C2C(C#N)=C(N)Oc3cc(N(C)C)ccc32)cc2c1OCO2 (stereo not drawn)	-11.7% (inactive)
N#CC1=C(N)Oc2cc(N)ccc2C1c1ccc(Cl)cc1 (stereo not drawn)	-15.5% (inactive)
N#CC1=C(N)Oc2cc(N)ccc2C1c1cccc(Br)c1 (stereo not drawn)	-3.92% (inactive)
N#CC1=C(N)Oc2cc(N)ccc2C1c1ccccc1Cl (stereo not drawn)	-2.14% (inactive)
COc1ccc(S(=O)(=O)N2CC[C@@H]3[C@H](CO)Nc4ccc(-c5ccc(C#N)cc5)cc4[C@@H]32)cc1	-32.1% (inactive)
CCCCc1ccc2nc(NC(=O)OC)[nH]c2c1	-18.5% (inactive)
COC(=O)c1ccc(C2C(C#N)=C(N)Oc3cc(N)ccc32)cc1 (stereo not drawn)	6.98% (inactive)
O=C(Nc1c(Cl)cncc1Cl)c1ccc(OC(F)F)c(OCC2CC2)c1	5.78% (inactive)
N#CC1=C(N)Oc2cc(N)ccc2C1c1cccc(F)c1 (stereo not drawn)	-15.7% (inactive)
COc1ccccc1-c1nnc2n1N=C(c1ccc3c(c1)OCO3)CS2	-11.4% (inactive)
Cc1ccccc1C1C(C#N)=C(N)Oc2cc(N)ccc21 (stereo not drawn)	0.564% (inactive)
Cc1cccc(C2C(C#N)=C(N)Oc3cc(N)ccc32)c1 (stereo not drawn)	-14.7% (inactive)
N#Cc1ccc(-c2ccc3c(c2)[C@H]2[C@H](CCN2S(=O)(=O)c2ccccc2F)[C@@H](CO)N3)cc1	-18.6% (inactive)

Structure (SMILES)	activity change, negative = cytotoxicity
COc1ccc(CNc2nc(N3CCC[C@H]3CO)ncc2C(=O)NCc2ncccn2)cc1Cl	-10.6% (inactive)
CN1c2ccc(-c3ccc(C#N)cc3)cc2[C@H]2[C@H](CCN2S(=O)(=O)c2ccc(F)cc2)[C@H]1CO	20.9% (inactive)
C[C@]1(c2nc3c(C(N)=O)cccc3[nH]2)CCCN1	-5.99% (inactive)
COc1cccc(C2C(C#N)=C(N)Oc3cc(N)ccc32)c1 (stereo not drawn)	-11.2% (inactive)
Cc1ccc(S(=O)(=O)N2CC[C@@H]3[C@@H](CO)Nc4ccc(-c5ccc(C#N)cc5)cc4[C@@H]32)cc1	-7.83% (inactive)
Cc1ccc(C2C(C#N)=C(N)Oc3cc(N)ccc32)cc1 (stereo not drawn)	1.29% (inactive)
COc1ccc(C2C(C#N)=C(N)Oc3cc(N)ccc32)cc1 (stereo not drawn)	-5.71% (inactive)
COc1ccc(S(=O)(=O)N2CC[C@@H]3[C@@H](CO)N(C)c4ccc(-c5ccc(F)cc5)cc4[C@@H]32)cc1	-2.59% (inactive)
Cc1c([C@H](C(Cl)Cl)[C@H](O)[C@H]2C[C@H](C)C(=O)O2)ccc2c1C(=O)[C@H]1[C@H]2C[C@@H](Br)[C@@]23O[C@@H](CO[C@H]2O)C[C@]13C	-19.2% (inactive)
COc1ccccc1S(=O)(=O)N1CC[C@@H]2[C@@H](CO)Nc3ccc(-c4ccc(C#N)cc4)cc3[C@@H]21	-11.4% (inactive)
CN(C)c1ccc2c(c1)OC(N)=C(C#N)C2c1cccc(F)c1 (stereo not drawn)	-8.25% (inactive)
COc1ccccc1C1C(C#N)=C(N)Oc2cc(N)ccc21 (stereo not drawn)	4.04% (inactive)
CN(C(=O)CCCOc1ccc2[nH]c(=O)ccc2c1)C1CCCCC1	-11.4% (inactive)
COc1ccc(C2CNC(=O)C2)cc1OC1CCCC1 (stereo not drawn)	15.7% (inactive)
Clc1ccccc1-c1nnc2n1N=C(c1ccc3c(c1)OCO3)CS2	-25.1% (inactive)
CN1c2ccc(-c3ccc(C#N)cc3)cc2[C@H]2[C@H](CCN2S(=O)(=O)c2cccc(F)c2)[C@H]1CO	-20.9% (inactive)
N#CC1=C(N)Oc2cc(N)ccc2C1c1ccc2ccccc2c1 (stereo not drawn)	-25.4% (inactive)
COc1cc(Nc2ncc3c(n2)-c2ccc(Cl)cc2C(c2c(F)cccc2OC)=NC3)ccc1C(=O)O	-12.9% (inactive)

Same assay, conditions: HepG2 viability, ATP luminescence (CellTiter-Glo), 72 h; at 50 µM (top of the series)

Structure (SMILES)	activity change, negative = cytotoxicity
O=P1(NCCCl)OCCCN1CCCl (stereo not drawn)	7.58% (inactive)

Same assay, conditions: HepG2 viability, ATP luminescence (CellTiter-Glo), 72 h; at 110 µM (top of the series)

Structure (SMILES)	activity change, negative = cytotoxicity
O=C(c1cc(Cc2n[nH]c(=O)c3ccccc23)ccc1F)N1CCN(C(=O)C2CC2)CC1	-17.3% (inactive)

Source: PubChem BioAssay AID743471 (Broad Institute, 2014)
